Here are results for two molecules from US6649797B2, “Compounds and methods of use to treat infectious diseases” (The Picower Institute for Medical Research, priority 1996, dated 2003).

Structures are written as SMILES. Where “and” joins values, the source holds several entries; their conditions need not be identical. Identical values can stand only once. Like-named read-outs stand apart in the source and are kept apart here.

Data set [1] in a line: Pharmacokinetics in mice (plasma, HPLC). It counts as in vivo, mouse. As to conditions: for AUC / Cmax / bioavailability / Tmax / A (zero time intercept of the distribution phase) / B (zero time intercept of the elimination phase) / Cltot / VD / t1/2α / t1/2β / α / β: mouse.
Description: Standard addition curves for each test compound were constructed by adding increased amounts of drug to mouse or human A^+ plasma (Long Island Blood Services; Melville, N.Y). […] The column was washed with 1.0 ml of water and then eluted with 1.0 ml of 10 mM tetramethylammonium chloride/10 mM heptane sulfonate/4.2 mM H3PO4/95% CH3CN/5% H2O (Buffer C). The eluted sample was reduced to dryness in a rotary evaporator and resuspended in 1.0 ml Buffer A.
Two hundred μl of the resuspended sample was injected onto a Hewlett-Packard model 1090 high performance liquid chromatography system (HPLC)(Wilmington, Del.) equipped with a photodiode array ultraviolet/visible spectrophotometric detector, autosampler, and Chemstation operating software. The column used was a 250×4.6 mm Zorbax RX-C8 column (Mac-Mod Analyticals; Chadd's Ford, Pa.) kept at room temperature and run at 1.5 ml/min. The mobile phase used was Buffer A and 10 mM tetramethylammonium chloride/10 mM heptane sulfonate/4.2 mM H3PO4/75% CH3CN/25% H2O (Buffer B), with all runs initiated at 10% Buffer B. A linear 30 min gradient to 60% Buffer B was then performed, followed by a 4 min reverse gradient to initial conditions.
Female ND4 Swiss Webster mice (21-24 g) were obtained from Harlan Sprague Dawley (Indianapolis, Ind.) and randomly placed in groups of five in cages with free access to food and water. […] The other CNI compounds were administered intraperitoneally or by oral gavage as a solution in water titrated with sufficient HCl to dissolve the drug. At various time points, ranging from 5 min to 4 days, a single group of animals was euthanized by carbon dioxide inhalation and bled by cardiac puncture using heparin as an anticoagulant. The blood from the five mice in the group was pooled and centrifuged at 14000× g for 10 min. The volume of plasma was measured, and equal volume of Buffer A added, and the mixture extracted and analyzed as described above, except that the dried eluates were resuspended in 200 μl Buffer A and 100 μl was injected onto the high performance liquid chromatography (HPLC) system.
The area under the plasma concentration-time curve (AUC) was determined, and bioavailability was measured as AUCoral/AUCi.p. A and B represent the zero time intercept of the distribution and elimination phases respectively, and a and β the respective slopes of the phases multiplied by 2.303. The t/2α and t1/2β are calculated half-lives of the drug in each phase (0.693/α and 0.693/β respectively). The volume of distribution (VD) was calculated as dose/B, and the total clearance rate (Cltot) calculated as β*VD. Cmax and tmax are the maximal plasma concentration and time of this measurement, respectively.
Data set [2] in a line: Toxicity in mice, median lethal dose by intraperitoneal injection. In kind it is in vivo, mouse. As for the experimental part: The doses of compounds of the invention found to be lethal to 50% of the mice (LD50) were determined by intraperitoneal injection of groups of five animals with increasing doses of each compound. CNI-0294 was administered from 0, 2, 10, 20, 40, 80, 160, 320, 640, 1280 mg/kg in 0.5 ml of water/HCl; CNI-1594 at 0, 2.4, 5, 10, 20, 40, 80 mg/kg in 0.5 ml of water/HCl; CNI-1794 at 0, 20, 50, 80 mg/kg in 0.5 ml of water/HCl; and CNI-1894 at 0, 10, 20, 40, 80, 240, 480, 960 mg/kg in water/HCl. […] The percentage of animals in each group which died were utilized to calculate the LD50 by non-linear curve fitting with the Enzfit software (Elsevier Bioscience; Cambridge, UK) programmed with the Chou equation (Chou 1976, J Theor Biol 39:253-276)).

In data set [3] the test system is Plasmodium berghei NYU-2. The experiment in a line: Four day suppression test in Plasmodium berghei infected mice. It counts as in vivo. As to conditions: 50 mg/kg i.p. once daily for four days, P≦0.01. As for the experimental part:
FIG. 9. The activity of CNI-0294 against Plasmodium berghei infected mice. Female ND4 Swiss Webster mice were infected with infected erythrocytes and then treated once daily, for four days, with 50 mg/kg CNI-0294, or with distilled water. Six hours after the last dose, thin blood smears were made from each of the animals and the parasitemia was determined. The bars represent the median parasitemia (n=4 for controls and n=5 for treated).
The antimalarial activity of CNI-0294 in vivo was assessed by infecting female ND4 Swiss Webster mice with 100 μl of Plasmodium berghei NYU-2 infected mouse erythrocytes (50% parasitemia) by intraperitoneal injection. The animals were subsequently injected intraperitoneally once per day on days 1-4 of the infection with 0.5 ml water or 0.5 ml of 50 mg/kg CNI-0294 in water. Four hours after the final injection, small blood samples were taken from the tail, and thin smears stained with Dif-Quick (Baxter, Miami, Fla.). The parasitemia of control and treated animals was enumerated by inspection of at least 1000 erythrocytes in each animal.

The target of data set [4] is T1, recombinant RT (p51/p66 heterodimer) (Human immunodeficiency virus type 1 group M subtype B, UniProt P04585).
T1 construct: recombinant MA or RT (a p51/p66 heterodimer)
In words: Binding of [14C]-CNI-H0294 to recombinant RT in solution (immunoprecipitation). Also noted: species or system HIV-1. As to conditions: 20 nmol [14C]-CNI-H0294 with 0.28 nmol RT. How it is done: Twenty nmol of [^14C]-CNI-HO294 were mixed with 0.28 nmol of recombinant MA or RT (a p51/p66 heterodimer) in 40 μl of binding buffer. Samples were incubated for 2 h at 37° C. in the presence or absence of 200 nmol of unlabeled CNI-H0294. MA and RT proteins were immunoprecipitated using protein G agarose and sheep polyclonal anti-MA (αMA) or rabbit anti-RT (αRT) sera, respectively. Pre-immune sera (PI) was used as control. Bound material was eluted from protein G using 0.1 M glycine buffer [pH 2.8] and the radioactivity in the eluate was quantified in a scintillation counter.
Recombinant RT (0.2 μM) was incubated with 3.3 μM of [^14C ]-labeled CNI-H0294 and increasing concentrations of unlabeled (cold) CNI-3094. The amount of [^14C]-CNI-H0294 that bound to RT was measured as in FIG. 11.
0.28 nanomoles of recombinant MA or RT [p66/p51 ] dimer were mixed with 20 nmol of [^14C] CNI-HO294 (specific activity 5×10^4 cpm/nmol) and incubated 2 hr at room temperature in 40 μl of binding buffer (PBS supplemented with 1% BSA, 0.1% Tween 20, 1 μg/ml leupeptin, 1 μg/ml aprotinin, 1 mM PMSF). Sheep anti-MA or rabbit anti-RT sera (both obtained from NIH AIDS Research and Reference Reagent Program) or pre-immune control sera were then added (at 1:100 dilution) and incubation continued for another 1 hr at room temperature. Immune complexes were precipitated with protein G-agarose, washed, and then eluted with 0.1 M glycine, pH 2.8. Radioactivity of the eluate was measured in a scintillation counter.

The target of data set [5] is HIV-1 RT (Human immunodeficiency virus type 1 group M subtype B, UniProt P04585). The experiment in a line: Enzymatic activity of HIV-1 RT in vitro. It counts as biochemical.
The mark [6] stands for this setting: female, ND4 Swiss Webster, plasma, ip, 50 mg/kg, vehicle DMSO/peanut oil.
Where [7] appears, read: female, ND4 Swiss Webster, plasma, ip, 50 mg/kg, vehicle water.
[8] abbreviates: female, ND4 Swiss Webster, plasma, po, 50 mg/kg, vehicle DMSO/peanut oil.
Where [9] appears, read: i.p., 50 mg/kg, vehicle DMSO/peanut oil.

In the case of `CC(=O)c1cc(Nc2cc(C)[n+](C)c(N)n2)cc(C(C)=O)c1` [CNI-0294, 2-Amino-4-(3,5-diacetylphenyl)amino-1,6-dimethylpyrimidinium chloride], in data set [1] (setting [6]), the AUC amounted to 9150 ng·h/mL and the peak level (Cmax) was 18800 ng/mL. In addition, in data set [1] (setting [7]), the AUC worked out at 8830 ng·h/mL and the Cmax amounted to 18900 ng/mL. For the same molecule, in data set [1] (female, ND4 Swiss Webster, plasma, oral, mice, single 50 mg/kg dose, AUCoral against AUCi.p., read-out: relative bioavailability), the bioavailability came to 6%. Besides, in data set [1] (setting [8]), the AUC was found to be 560 ng·h/mL and the peak level (Cmax) was 410 ng/mL. The Tmax in data set [1] (female, ND4 Swiss Webster, plasma, ip, i.p., 50 mg/kg, vehicle DMSO/peanut oil, read-out: tmax (converted)) was 5 min. In data set [1] (female, ND4 Swiss Webster, plasma, oral, 50 mg/kg, vehicle DMSO/peanut oil, AUCoral/AUCi.p., read-out: Bioavailability), the bioavailability was 6%. Also, the Tmax in data set [1] (female, ND4 Swiss Webster, plasma, oral, 50 mg/kg, vehicle DMSO/peanut oil, read-out: tmax (converted)) is 60 min. Besides, the maximal plasma level in data set [1] (mice, oral, single 50 mg/kg dose) is 0.4 µg/mL. The maximal plasma level in data set [1] (mice, single i.p. injection (50 mg/kg; CNI-1594 20 mg/kg)) is 18.76 µg/mL and 18.76 to 18.93 µg/mL. Further, in data set [1] (setting [9]), the “A (zero time intercept of the distribution phase)” value was found to be 14.00 µg/mL, the “B (zero time intercept of the elimination phase)” value came to 0.07 µg/mL, the Cltot is 35.35 mL/min and the VD turned out to be 14.14 L. For the same molecule, in data set [1] (setting [9]), the t1/2α was determined as 37.2 min, the t1/2β stood at 277 min, the α worked out at 1.12 h⁻¹ and the β was 0.15 h⁻¹. In addition, in data set [1] (i.p., 50 mg/kg, vehicle water), the “A (zero time intercept of the distribution phase)” value turned out to be 16.07 µg/mL, the “B (zero time intercept of the elimination phase)” value was 0.05 µg/mL, the Cltot turned out to be 62.70 mL/min and the Tmax turned out to be 5 min. In data set [1] (i.p., 50 mg/kg, vehicle water), this molecule had a VD of 19.80 L, a t1/2α of 24 min, a t1/2β of 219 min and a α of 1.74 h⁻¹. This molecule showed a β in data set [1] (i.p., 50 mg/kg, vehicle water) of 0.19 h⁻¹. In addition, the “visible signs of toxicity” value in data set [2] is listed as “no overt signs of toxicity detectable at doses approaching the LD50”. The “LD50 ± standard deviation” value in data set [2] (listed as CNI-H0294) was 590 mg/kg. For the same molecule, in data set [2] (mouse, in vivo, ip, read-out: LD50 ± standard deviation), the LD50 amounted to 588 mg/kg. This molecule came in with a lowering of parasitemia in data set [3] of 10 fold. For the same molecule, in data set [4], the “CNI-H0294 immunoprecipitable with RT” value is listed as around 0.34 nmol. Moreover, the “radioactivity immunoprecipitable with RT” value in data set [4] (specific activity 50,000 cpm/nmol) was “about 17,000 cpm”. Also, the “block of enzymatic activity of HIV-1 RT in vitro” value in data set [5] (concentrations up to 50 μM) was “nor did it block in concentrations up to 50 μM the enzymatic activity of HIV-1 RT in vitro”.
Consider `CC(=O)c1cc(Nc2cc(C)[n+](C)c(N)n2)cc(C(C)=O)c1.[I-]` [Compound No. 2, 2-amino-4-(3,5-diacetylphenyl)amino-1,6-dimethylpyrimidinium iodide], for which the Dose in data set [1] (calculated from clearance for target serum conc. (No. 2: 10 nM; No. 11: 50 nM; No. 15: 15 nM)) was 6.80 mg/Kg day. Moreover, in data set [5] (data not shown), the “inhibition of reverse transcriptase” value is “does not inhibit reverse transcriptase”.
